Experiments:
[1] = system: LOX; test: Microculture tetrazolium assay; format: cell-based; conditions: read-out: IC50
[2] = system: SKVLB; test: Microculture tetrazolium assay; format: cell-based; conditions: for IC50: SKVLB, read-out: IC50
[3] = system: HT29; test: Microculture tetrazolium assay; format: cell-based; conditions: Homo sapiens, HT-29, HT29; read-out: IC50
[4] = system: MATB.WT; test: Soft agar colony formation disk diffusion assay; format: cell-based, rat
Summary of the method: (§1)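 Read-out: zone of inhibition, disk edge to most proximal colony (>50 cells), measured by ocular micrometer at 40×. Two-layer agar, 10^4 to 2×10^5 cells per dish, drug on filter disk, 37° C., 5% CO2, 10-20 days.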

[5] = system: MATB/ADR; test: Soft agar colony formation disk diffusion assay; format: cell-based, rat
Summary of the method: as §1

[6] = system: T47D; test: Microculture tetrazolium assay; format: cell-based; conditions: Homo sapiens, read-out: IC50
[7] = system: SKOV3; test: Microculture tetrazolium assay; format: cell-based; conditions: Homo sapiens, SK-OV-3, SKOV3; read-out: IC50
[8] = system: MCF7/ADR; test: Soft agar colony formation disk diffusion assay; format: cell-based, human
Summary of the method: (§2)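 Cells in 0.4% Noble agar top layer over 0.8% agar base; compound in DMSO/water applied on 6.5 mm filter disk. Incubated 37 °C, 5% CO2 for 10–20 days. Activity measured as inhibition zone from disk edge to nearest colonies (>50 cells), by ocular micrometer.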

[9] = system: MCF7; test: Soft agar colony formation disk diffusion assay; format: cell-based, human
Summary of the method: as §2

[10] = system: LS180; test: Soft agar colony formation disk diffusion assay; format: cell-based, human
Summary of the method: as §2

[11] = system: tumor cell lines; test: NCI sulforhodamine B assay, all cell lines; conditions: for CC50 / IC100 / GI50: Homo sapiens; for CC50 / IC100: 48 h; for CC50: read-out: Log10 LC50, Mean / MG-MID, all cell lines (converted); for IC100: read-out: Log10 TGI, Mean / MG-MID, all cell lines; for GI50: read-out: Log10 GI50, Mean / MG-MID, all cell lines (converted)

CCOC(=O)[C@@H]1CC2=C(C(=O)c3c(c(O)c4ccccc4c3OC(C)=O)C2=O)[C@@H](O)O1 (mixture of isomers) [BCH-658, (1S,3S) and (1R,3R) Ethyl[11-acetoxy-1,6-dihydroxy-5,12-dioxo-3,4,5,12-tetrahydroanthraceno (2,3-c)pyran-3-yl]formate]
IC50 [1]: 66.2 µM | IC50 [2]: > 100 µM | IC50 [3]: > 100000 nM | zone of inhibition ([4]; 10 μg/DISK): 0 Zone Units | zone of inhibition ([4]; 100 μg/DISK): 0 Zone Units | zone of inhibition ([5]; 10 μg/DISK): 0 Zone Units | zone of inhibition ([5]; 100 μg/DISK): 0 Zone Units | IC50 [6]: > 100 µM | IC50 [7]: 11.2 µM | zone of inhibition ([8]; 10 μg/DISK): 0 Zone Units | zone of inhibition ([8]; 100 μg/DISK): 0 Zone Units | zone of inhibition ([9]; 10 μg/DISK): 0 Zone Units | zone of inhibition ([10]; 10 μg/DISK): 48.8 ± 34.5 Zone Units | zone of inhibition ([10]; 100 μg/DISK): 164.7 ± 25.8 Zone Units | CC50 [11]: 100 µM | IC100 [11]: 97.7 µM | GI50 [11]: 70.8 µM

CCOC(=O)[C@@H]1CC2=C(C(=O)c3cc4ccccc4c(OC(C)=O)c3C2=O)[C@@H](O)O1 (mixture of isomers) [BCH-660, (1S,3S) and (1R,3R)-Ethyl-[6-acetoxy-1-hydroxy-5,12-dioxo-3,4,5,12-tetrahydroanthraceno (2,3-c)pyran-3-yl]formate]
IC50 [1]: 9.84 µM | VLB/OV3 ([2]; IC50 ratio SKVLB/SKOV3): 1.22 | IC50 [2]: 6.49 µM | IC50 [3]: 2920 nM | zone of inhibition ([4]; 10 μg/DISK): 137.2 ± 21.5 Zone Units | zone of inhibition ([4]; 100 μg/DISK): 137.2 ± 21.5 Zone Units | zone of inhibition ([5]; 10 μg/DISK): 24.4 ± 8.6 Zone Units | zone of inhibition ([5]; 100 μg/DISK): 161.5 ± 30.4 Zone Units | IC50 [6]: 6.67 µM | IC50 [7]: 5.34 µM | zone of inhibition ([8]; 10 μg/DISK): 9.1 ± 4.3 Zone Units | zone of inhibition ([8]; 100 μg/DISK): 109.8 ± 10.0 Zone Units | zone of inhibition ([9]; 10 μg/DISK): 27.4 ± 4.3 Zone Units | zone of inhibition ([9]; 100 μg/DISK): 82.3 ± 12.9 Zone Units | zone of inhibition ([10]; 10 μg/DISK): 15.0 ± 4.2 Zone Units | zone of inhibition ([10]; 100 μg/DISK): 76.0 ± 4.2 Zone Units | antiproliferative and cytotoxic activity in words [11]: strong antiproliferative (GI50) and potent cytotoxic (LC50) activities | CC50 [11]: 21.4 µM | IC100 [11]: 2.82 µM | GI50 [11]: 0.813 µM

Methyl(11-hydroxy-5,12-dioxo-3,4,5,12-tetrahydroanthraceno[2,3-c]pyran-3-yl)ketone and Methyl(5-hydroxy-5,12-dioxo-3,4,5,12-tetrahydroanthraceno[2,3-c]pyran-3-yl)ketone [BCH-687]
zone of inhibition ([4]; 10 μg/DISK): 42.7 ± 6.1 Zone Units | zone of inhibition ([4]; 100 μg/DISK): 97.6 ± 20.0 Zone Units | zone of inhibition ([5]; 10 μg/DISK): 69.1 ± 7.0 Zone Units | zone of inhibition ([5]; 100 μg/DISK): 101.6 ± 35.2 Zone Units | cross resistance with adriamycin, MCF7/ADR vs MCF7 [8]: lack of cross resistance with adriamycin | zone of inhibition ([8]; 10 μg/DISK): 61.0 ± 6.1 Zone Units | zone of inhibition ([8]; 100 μg/DISK): 140.0 ± 32.3 Zone Units | zone of inhibition ([9]; 10 μg/DISK): 71.1 ± 9.3 Zone Units | zone of inhibition ([9]; 100 μg/DISK): 152.5 ± 50.0 Zone Units | zone of inhibition ([10]; 10 μg/DISK): 152.5 ± 30.5 Zone Units | zone of inhibition ([10]; 100 μg/DISK): 233.8 ± 17.6 Zone Units | antiproliferative and cytotoxic activity in words [11]: significant antiproliferative (GI50) and cytotoxic (LC50) activities in solid tumors | Log10 GI50, Mean / MG-MID ([11]; all cell lines): -4.85 log molar | Log10 TGI, Mean / MG-MID ([11]; all cell lines): -4.37 log molar
